Results taken from patent publication US20210300924A1, “5-[6-[[3-(4,5,6,7-TETRAHYDROPYRAZOLO[4,3-C]PYRIDIN-1-YL)AZETIDIN-1-YL]METHYL]MORPHOLIN-4-YL]QUINOLINE-8-CARBONITRILE DERIVATIVES AND SIMILAR COMPOUNDS AS TLR7-9 ANTAGONISTS FOR TREATING SYSTEMIC LUPUS ERYTHEMATOSUS” (Hoffmann-La Roche Inc., priority 2018, published 2021).

Columns and labels:
TLR9 = biological target: T1, TLR9 (Homo sapiens, UniProt Q9NR96); assay: Human PBMC cell-based assay; set-up: endogenous in cells; host or cells: human PBMC from healthy donor whole blood; details: CpG ODN 2216 stimulation, overnight, cytokine readout, read-out: hPBMC/TLR9 IC50
T1 sequence (Q9NR96 26-1032): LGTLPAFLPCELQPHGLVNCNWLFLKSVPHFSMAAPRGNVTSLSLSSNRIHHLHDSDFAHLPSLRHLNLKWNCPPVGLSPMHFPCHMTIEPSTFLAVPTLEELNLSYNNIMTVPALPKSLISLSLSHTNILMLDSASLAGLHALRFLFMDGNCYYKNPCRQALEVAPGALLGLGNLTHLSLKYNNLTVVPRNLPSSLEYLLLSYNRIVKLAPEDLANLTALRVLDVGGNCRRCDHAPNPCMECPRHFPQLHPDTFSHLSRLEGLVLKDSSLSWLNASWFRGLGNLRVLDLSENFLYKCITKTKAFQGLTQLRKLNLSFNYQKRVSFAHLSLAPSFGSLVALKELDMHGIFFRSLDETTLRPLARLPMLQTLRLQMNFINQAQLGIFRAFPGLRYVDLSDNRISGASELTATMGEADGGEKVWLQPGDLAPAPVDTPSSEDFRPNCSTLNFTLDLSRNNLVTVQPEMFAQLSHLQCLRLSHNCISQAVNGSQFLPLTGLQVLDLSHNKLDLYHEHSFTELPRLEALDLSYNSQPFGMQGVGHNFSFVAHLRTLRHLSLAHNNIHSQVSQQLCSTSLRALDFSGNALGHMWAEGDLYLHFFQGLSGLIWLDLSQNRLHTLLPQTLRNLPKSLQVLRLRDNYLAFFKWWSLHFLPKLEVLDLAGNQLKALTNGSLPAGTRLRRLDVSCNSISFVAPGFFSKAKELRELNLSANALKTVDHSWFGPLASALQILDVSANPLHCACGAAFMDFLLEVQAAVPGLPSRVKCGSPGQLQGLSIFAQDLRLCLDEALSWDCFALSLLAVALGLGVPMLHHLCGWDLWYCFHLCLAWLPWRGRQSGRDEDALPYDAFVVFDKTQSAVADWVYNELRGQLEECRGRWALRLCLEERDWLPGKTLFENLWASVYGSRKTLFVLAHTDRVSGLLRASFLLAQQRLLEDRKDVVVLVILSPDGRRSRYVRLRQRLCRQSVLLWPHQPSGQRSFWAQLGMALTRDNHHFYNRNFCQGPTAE
Text: Human PBMC Cell-Based Assay
Unlike the HEK reporter cell lines, human peripheral blood mononuclear cell (PBMC) represents primary human immune cells in blood mainly consisting of lymphocytes, monocytes, and dendritic cells. These cells express TLR7, TLR8, or TLR9, and therefore are natural responders to respective ligand stimulation. Upon activation of these TLRs, PBMCs secrete similar cytokines and chemokines in vitro and in vivo, and therefore the in vitro potency of a TLR7/8/9 antagonist in human PBMC is readily translatable to its pharmacodynamics response in vivo.
Human peripheral blood mononuclear cells (PBMC) were isolated from freshly-drawn lithium-heparinized (Lithium Heparin Plus blood Collection tube, BD Vacutainer®) healthy donor whole blood by density gradient (Ficoll-Paque™ PLUS, GE Healthcare life Sciences). Briefly, […] was diluted with 25 mL PBS (without Ca^2+, Mg^2+) in a 50 mL conical tube with porous barrier (Leucosep tube, Greiner bio-one), where 15.5 mL Ficoll-Paque was under laid after spinning. Tubes were centrifuged for 20 minutes at 800×g (1946 rpm) with the brake in the off position, and PBMC were collected from the buffy coat. Cells were then washed twice in PBS, and red blood cells were lysed by suspension in 2 mL (Red Blood Cell Lysis Buffer, Alfa Aesar) for 5-10 minutes at room temperature. After a final wash in PBS, PBMC were resuspended at a final concentration of 2×10^6 cells/mL in RPMI-1640 media with GlutaMAX™ (Gibco) supplemented with 10% Fetal Bovine Serum (Sigma) and plated at 150 μL/well (3×10^5 cells/well) in tissue culture treated round bottom 96-well plates (Corning Incorporated). Antagonist compounds (compounds of this invention) solubilized and serial diluted in 100% DMSO were added in duplicate to cells to yield a final concentration of 1% DMSO (v/v). PBMC were incubated with antagonist compounds for 30 minutes at 37° C., 5% CO2 before adding various TLR agonist reagents in 48 μL complete media per well as follows (final concentrations indicated): CpG ODN 2216 (InvivoGen) at […] for TLR9, ORN 06/LyoVec (InvivoGen) at 1 μg/mL for TLR8 and R848 (InvivoGen) at 1 μg/mL for TLR7 and TLR8. PBMC were incubated overnight at 37° C. with 5% CO2. Cell culture supernatants were collected, and levels of various human cytokines were assessed by Luminex assay (ProcartaPlex™ Multiplex Immunoassay, Invitrogen) or ELISA procedure according to the manufacturer's recommended protocol (eBioscience, ThermoFisher Scientific). Viability of the cells was also checked with Cell Viability Assay (CellTiter Glo® Luminescent Cell Viability Assay, Promega).

hERG channel = biological target: T2, hERG channel (Homo sapiens, UniProt Q12809); assay: hERG channel inhibition assay (patch-clamp, CHOhERG cells); assay type: cell-based; details: for IC50 / IC20: CHOhERG cells, whole-cell patch-clamp; for IC20: human, CHO cells stably expressing hERG (CHOhERG cells); for hERG IC20/TLR7 IC50 / hERG IC20/TLR8 IC50 / hERG IC20/TLR9 IC50: safety ratio, >30 suggests sufficient window
T2 construct: expressed in transfected cells; host or cells: CHO (Chinese hamster ovary), CHOhERG
T2 sequence (Q12809 whole entry): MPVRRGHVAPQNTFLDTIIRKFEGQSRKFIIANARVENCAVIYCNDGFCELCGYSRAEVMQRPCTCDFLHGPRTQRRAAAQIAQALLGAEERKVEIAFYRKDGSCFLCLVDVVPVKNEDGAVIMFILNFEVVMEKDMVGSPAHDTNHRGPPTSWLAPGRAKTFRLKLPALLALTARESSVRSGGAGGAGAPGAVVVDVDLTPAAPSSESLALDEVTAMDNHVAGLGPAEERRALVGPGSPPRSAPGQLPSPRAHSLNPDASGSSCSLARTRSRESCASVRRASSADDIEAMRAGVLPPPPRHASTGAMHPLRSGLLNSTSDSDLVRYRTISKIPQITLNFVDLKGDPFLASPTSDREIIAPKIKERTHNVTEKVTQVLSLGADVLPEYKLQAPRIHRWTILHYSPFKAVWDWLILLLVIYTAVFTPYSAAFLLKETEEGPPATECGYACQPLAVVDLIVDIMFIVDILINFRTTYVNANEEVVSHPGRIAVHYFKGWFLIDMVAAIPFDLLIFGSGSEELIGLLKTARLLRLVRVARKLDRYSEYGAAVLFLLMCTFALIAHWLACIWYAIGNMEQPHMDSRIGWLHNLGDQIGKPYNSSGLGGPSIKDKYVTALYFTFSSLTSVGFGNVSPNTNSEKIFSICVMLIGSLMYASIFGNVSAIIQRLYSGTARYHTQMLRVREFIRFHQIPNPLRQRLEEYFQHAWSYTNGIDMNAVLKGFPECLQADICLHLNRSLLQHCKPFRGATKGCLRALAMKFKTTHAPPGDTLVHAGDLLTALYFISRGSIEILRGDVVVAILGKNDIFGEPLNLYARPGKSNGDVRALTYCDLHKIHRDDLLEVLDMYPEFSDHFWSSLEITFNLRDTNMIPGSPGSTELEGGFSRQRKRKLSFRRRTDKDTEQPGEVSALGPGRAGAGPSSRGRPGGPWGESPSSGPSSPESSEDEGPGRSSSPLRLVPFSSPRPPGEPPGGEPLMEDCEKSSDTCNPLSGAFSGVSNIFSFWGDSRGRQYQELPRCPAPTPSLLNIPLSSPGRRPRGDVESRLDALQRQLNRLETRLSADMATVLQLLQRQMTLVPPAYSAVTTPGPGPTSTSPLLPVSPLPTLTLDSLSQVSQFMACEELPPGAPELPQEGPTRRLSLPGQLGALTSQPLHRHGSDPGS
Description: hERG Channel Inhibition Assay:
The hERG K^+ channels were cloned in humans and stably expressed in a CHO (Chinese hamster ovary) cell line. CHOhERG cells were used for patch-clamp (voltage-clamp, whole-cell) experiments. Cells were stimulated by a voltage pattern to activate hERG channels and conduct hERG currents (rapid delayed outward rectifier potassium current of the hERG channel). After the cells were stabilized for a few minutes, the amplitude and kinetics of IKhERG were recorded at a stimulation frequency of 0.1 Hz (6 bpm). Thereafter, the test compound was added to the preparation at increasing concentrations. For each concentration, an attempt was made to reach a steady-state effect, usually, this was achieved within 3-10 min at which time the next highest concentration was applied. The amplitude and kinetics of IKhERG are recorded in each concentration of the drug which were compared to the control values (taken as 100%). (references: Redfern W S, Carlsson L, Davis A S, Lynch W G, MacKenzie I, Palethorpe S, Siegl P K, Strang I, Sullivan A T, Wallis R, Camm A J, Hammond T G. 2003; Relationships between preclinical cardiac electrophysiology, clinical QT interval prolongation and torsade de pointes for a broad range of drugs: evidence for a provisional safety margin in drug development. Cardiovasc. Res. 58:32-45, Sanguinetti MC, Tristani-Firouzi M. 2006; hERG potassium channels and cardiac arrhythmia. Nature 440:463-469, Webster R, Leishman D, Walker D. 2002; Towards a drug concentration effect relationship for QT prolongation and torsades de pointes. Curr. Opin. Drug Discov. Devel. 5:116-26).

SMILES | IC50 (TLR9) | IC50 (hERG channel) | IC20 (hERG channel) | hERG IC20/TLR7 IC50 (hERG channel) | hERG IC20/TLR8 IC50 (hERG channel) | hERG IC20/TLR9 IC50 (hERG channel)
C[C@@H]1CN(c2ccc(C#N)c3ncccc23)C[C@H](CN2CC(n3cc4c(n3)[C@@H](C)NCC4)C2)O1 (single isomer, unassigned) [Example 33] | 72 nM | > 20000 nM | > 10000 nM | >1369.9 | >763.4 | >291.5
C[C@@H]1CN(c2ccc(C#N)c3ncccc23)C[C@H](CN2CC(n3ncc4c3CNCC4)C2)O1 [Example 3, 5-[(2R,6S)-2-methyl-6-[[3-(4,5,6,7-tetrahydropyrazolo[3,4-c]pyridin-1-yl)azetidin-1-yl]methyl]morpholin-4-yl]quinoline-8-carbonitrile] | 118 nM | > 20000 nM | > 10000 nM | >2901.3 | >1739.2 | >194.9
C[C@@H]1CN(c2ccc(C#N)c3ncccc23)C[C@H](CN2CC(n3cc4c(n3)CN(C)CC4)C2)O1 [Example 5, 5-[(2R,6S)-2-methyl-6-[[3-(6-methyl-5,7-dihydro-4H-pyrazolo[3,4-c]pyridin-2-yl)azetidin-1-yl]methyl]morpholin-4-yl]quinoline-8-carbonitrile] | 318 nM | > 20000 nM | > 10000 nM | >2857.1 | >1653.6 | >73.1
Cc1nn(C2CN(C[C@H]3CN(c4ccc(C#N)c5ncccc45)C[C@@H](C)O3)C2)c2c1CNCC2 [Example 12, 5-[(2R,6S)-2-methyl-6-[[3-(3-methyl-4,5,6,7-tetrahydropyrazolo[4,3-c]pyridin-1-yl)azetidin-1-yl]methyl]morpholin-4-yl]quinoline-8-carbonitrile] | 92 nM | > 20000 nM | > 10000 nM | >666.7 | >226.8 | >127.6
Cc1c2c(nn1C1CN(C[C@H]3CN(c4ccc(C#N)c5ncccc45)C[C@@H](C)O3)C1)CCNC2 [Example 13, 5-[(2R,6S)-2-methyl-6-[[3-(3-methyl-4,5,6,7-tetrahydropyrazolo[4,3-c]pyridin-2-yl)azetidin-1-yl]methyl]morpholin-4-yl]quinoline-8-carbonitrile] | 119 nM | > 20000 nM | > 10000 nM | >694.4 | >222.2 | >84.5
C[C@@H]1Cc2c(cnn2C2CN(C[C@H]3CN(c4ccc(C#N)c5ncccc45)C[C@@H](C)O3)C2)CN1 [Example 16, 5-[(2R,6S)-2-methyl-6-[[3-[(6R)-6-methyl-4,5,6,7-tetrahydropyrazolo[4,3-c]pyridin-1-yl]azetidin-1-yl]methyl]morpholin-4-yl]quinoline-8-carbonitrile] | 84 nM | > 20000 nM | > 10000 nM | >2381.0 | >641.0 | >129.0
C[C@@H]1CN(c2ccc(C#N)c3ncccc23)C[C@H](CN2CC(n3cc4c(n3)CCN[C@H]4C)C2)O1 [Example 23, 5-[(2R,6S)-2-methyl-6-[[3-[(4S)-4-methyl-4,5,6,7-tetrahydropyrazolo[4,3-c]pyridin-2-yl]azetidin-1-yl]methyl]morpholin-4-yl]quinoline-8-carbonitrile] | 143 nM | – | – | – | – | –

Now from value to molecule, other results behind:

IC50 (TLR9) | SMILES | IC50 (hERG channel) | IC20 (hERG channel) | hERG IC20/TLR7 IC50 (hERG channel) | hERG IC20/TLR8 IC50 (hERG channel) | hERG IC20/TLR9 IC50 (hERG channel)
115 nM | C[C@@H]1CN(c2ccc(C#N)c3ncccc23)C[C@H](CN2CC(n3cc4c(n3)CN[C@@H](C)C4)C2)O1 (single isomer, unassigned) [Example 29] | > 20000 nM | > 10000 nM | >1265.8 | >877.2 | >138.3
162 nM | C[C@@H]1Cc2cn(C3CN(C[C@H]4CN(c5ccc(C#N)c6ncccc56)C[C@@H](C)O4)C3)nc2CN1 (single isomer, unassigned) [Example 30] | > 20000 nM | > 10000 nM | >2083.3 | >735.3 | >175.7
198 nM | C[C@@H]1CN(c2ccc(C#N)c3ncccc23)C[C@H](CN2CC(n3cc4c(n3)CNCC4)C2)O1 [Example 4, 5-[(2R,6S)-2-methyl-6-[[3-(4,5,6,7-tetrahydropyrazolo[3,4-c]pyridin-2-yl)azetidin-1-yl]methyl]morpholin-4-yl]quinoline-8-carbonitrile] | > 20000 nM | > 10000 nM | >1136.4 | >1162.8 | >314.5
